Source: PubChem BioAssay (NCI)
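1) Cells in 96-well plates. 2) Compound, 48 h, 5 concentrations. 3) Linear interpolation between surrounding doses. 4) Unreached endpoint = highest concentration. GI50 = concentration required for 50% inhibition of growth. TGI is the concentration that stops growth completely.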

Columns and labels:
Assay in all cases: NCI tumour cell line growth inhibition, 48 h
[1] = system: DMS 273 small cell lung
[2] = system: HOP-18 NSCLC
[3] = system: LXFL 529 NSCLC
[4] = system: M19-MEL melanoma
[5] = system: SNB-78 CNS
[6] = system: MDA-N
[7] = system: RXF-631 renal
[8] = system: P388 leukemia
[9] = system: P388/ADR leukemia
[10] = system: SN12K1 renal

`COc1ccc(/C=N/NS(=O)(=O)c2ccccc2)cc1` was tested, and the TGI [1] was > 100 µM, the TGI [2] was > 100 µM and the TGI [3] was > 100 µM. The TGI [4] was > 100 µM and the TGI [5] was > 100 µM.
For `CCCCC1(C(NC(=O)c2ccccc2Cl)c2ccncc2)C(=O)N(c2ccccc2)N(c2ccccc2)C1=O` (stereo not drawn), the TGI [1] was > 100 µM, the TGI [2] was > 100 µM and the TGI [3] was > 100 µM. The TGI [4] was > 100 µM and the TGI [5] was > 100 µM.
In the case of `O=C(O)CCCCC1CCSS1` (stereo not drawn), the TGI [6] is reported as > 100 µM.
For `C=C1CC[C@H]2C(C)=CC[C@H]3C(=C)C(=O)O[C@@H]3[C@@H]12`, the TGI [6] was > 100 µM.
`CCCCCC[C@H]1C(=O)O[C@H](C)[C@H](NC(=O)c2cccc(NC=O)c2OC)C(=O)O[C@@H](C)[C@@H]1OC(=O)CCC` (tested in a mixture with another compound) was tested, and the GI50 [6] was 11.1 µM and the TGI [6] was 45.2 µM.
With `Cc1ccc(OC(=O)N2C/C(=C\c3ccccc3)C(=O)/C(=C/c3ccccc3)C2)cc1` the TGI [1] was 18.1 µM, the TGI [2] was > 91.2 µM and the TGI [3] was 30.6 µM. The TGI [4] was 18.9 µM, the TGI [6] was 15.3 µM and the TGI [7] was > 100 µM. For the same compound, the TGI [5] was 82.3 µM.
With `O=C(O)c1ccccc1NCn1c(=S)sc2ccccc21` the TGI [6] was > 100 µM.
For `COc1cc2c(c(OC)c1OC)C(=O)NCCC2`, the TGI [1] was > 100 µM, the TGI [2] was > 100 µM and the TGI [3] was > 100 µM. The TGI [4] was > 100 µM, the TGI [8] was > 100 µM and the TGI [9] was > 100 µM. The TGI [10] was > 100 µM and the TGI [5] was > 100 µM.
In the case of `COc1cc(N(C)C)c(OC)cc1C=C1C=CC=C1`, the TGI [6] is reported as > 100 µM.
`Cc1ccc(S(=O)C(C)C(Cl)c2ccccc2)cc1` (stereo not drawn) was tested, and the TGI [1] was > 100 µM, the TGI [2] was > 100 µM and the TGI [3] was > 100 µM. For the same compound, the TGI [4] was > 100 µM and the TGI [5] was > 100 µM.
`COc1cc(OC)c2c(=O)c3cccc([N+](=O)[O-])c3n(C)c2c1` was tested, and the TGI [1] was > 100 µM, the TGI [3] was > 100 µM and the TGI [7] was > 100 µM. The TGI [5] was > 100 µM.
`Cc1nc2ccccc2c(=O)n1/N=C(\N=Nc1cc(Cl)ccc1Cl)c1ccccc1` was tested, and the TGI [1] was > 100 µM, the TGI [2] was 44.9 µM and the TGI [3] was > 100 µM. For the same compound, the TGI [4] was > 100 µM.
In the case of `O=C1OC(=O)C([Se]c2ccccc2)=C1[Se]c1ccccc1`, the TGI [2] is reported as > 100 µM, the TGI [3] is reported as > 100 µM and the TGI [7] is reported as > 100 µM. For the same compound, the TGI [5] was > 100 µM.
In the case of `C[C@H]1CC[P+](C)(c2ccccc2)C1` (stereo partly drawn), the TGI [1] is reported as > 100 µM, the TGI [2] is reported as > 100 µM and the TGI [3] is reported as > 100 µM. The TGI [4] was > 100 µM and the TGI [5] was > 100 µM.
For `N#CCc1cccc(CC#N)c1Br`, the TGI [1] was > 100 µM, the TGI [3] was > 100 µM and the TGI [5] was > 100 µM.
With `O=C1CCC(=O)N1Sc1ccccc1` the TGI [1] was > 100 µM, the TGI [4] was > 100 µM and the TGI [7] was > 100 µM. The TGI [5] was > 100 µM.
In the case of `CCN(c1ccccc1)[C@H]1C(=O)N(c2ccc([N+](=O)[O-])cc2)[C@H]1c1ccc(OC)cc1`, the TGI [1] is reported as > 100 µM, the TGI [3] is reported as > 100 µM and the TGI [4] is reported as > 100 µM. The TGI [7] was > 100 µM and the TGI [5] was > 100 µM.
For `CC(=O)OCC1OC(n2c3c(cc(C#N)c2=S)CCCC3)C(OC(C)=O)C(OC(C)=O)C1OC(C)=O` (stereo not drawn), the TGI [6] was > 100 µM.
For `CC1OC(OC2C(O)C(O)C(O)C(O)C2O)C(N)CC1N=C(N)C(=O)O` (stereo not drawn), the TGI [6] was > 100 µM.
With `O=NNc1ccc(S(=O)(=O)c2ccc3ccccc3c2)cn1` the TGI [6] was > 100 µM.
For `CNC(=O)OCc1nc(SC)n(C)c1COC(=O)NC`, the TGI [1] was 251 µM, the TGI [2] was 491 µM and the TGI [4] was 369 µM. The TGI [6] was 310 µM, the TGI [8] was 331 µM and the TGI [9] was 611 µM. It also gave a TGI [10] of 250 µM and a TGI [5] of 359 µM.
`O=c1[nH]cnc2n[nH]nc12` was tested, and the TGI [1] was > 100 µM, the TGI [2] was > 100 µM and the TGI [3] was > 100 µM. The TGI [4] was > 79.9 µM and the TGI [5] was 56.7 µM.
`N#[N+]c1ccc(Nc2ccccc2)cc1` was tested, and the GI50 [6] was > 50 µg/mL and the TGI [6] was > 50 µg/mL.
With `COc1ccc(C)cc1NC(=S)C#N` the TGI [6] was > 100 µM.
Compound `COc1cc2c3cc1Oc1c(OC)c(OC)cc4c1C(Cc1ccc(O)c(c1)Oc1ccc(cc1)CC3N(C)CC2)N(C)CC4` (stereo not drawn) has a TGI [6] of 60 µM.
In the case of `COc1cccc(/C=N\NC(=O)C(C)SC(C)C(=O)N/N=C/c2cccc(OC)c2)c1` (stereo not drawn), the TGI [1] is reported as 97 µM, the TGI [3] is reported as > 100 µM and the TGI [4] is reported as > 100 µM. The TGI [5] was > 100 µM.
For `C1=CC2CCC1CN2CCC1CNc2ccccc21` (stereo not drawn), the TGI [1] was > 100 µM, the TGI [2] was > 100 µM and the TGI [3] was > 100 µM. The TGI [4] was > 100 µM and the TGI [5] was > 100 µM.
For `OCCN(CO)CO`, the TGI [6] was > 100 µM.
With `Cn1c(=O)c2c(nc(N/N=C/c3ccccc3C(=O)O)n2C)n(C)c1=O` the TGI [6] was > 100 µM.
For `Clc1ccc(CN2CCCN(Cc3ccc(Cl)cc3)C2c2cc3ccccc3c3ccccc23)cc1`, the TGI [6] was > 100 µM.
In the case of `NCCCN=c1ccc2c3c1c(O)c1c(O)ccc(=O)c1c3[nH]n2CCNCCO`, the TGI [1] is reported as 0.403 µM, the TGI [2] is reported as 17.8 µM and the TGI [4] is reported as > 250 µM. The TGI [6] was 8.37 µM, the TGI [8] was 6.13 µM and the TGI [9] was 100 µM. It also gave a TGI [10] of 16.3 µM and a TGI [5] of 4.15 µM.
For `COc1ccc(Br)c(C(=O)N2CCc3ccccc32)c1N`, the TGI [1] was 99.3 µM, the TGI [2] was > 100 µM and the TGI [3] was > 100 µM. For the same compound, the TGI [4] was > 100 µM and the TGI [5] was > 100 µM.
`NC1=NCN(C2OC(CO)C(O)C2O)C(=O)N1` (stereo not drawn) was tested, and the TGI [1] was 620 µM, the TGI [2] was 1060 µM and the TGI [4] was 1760 µM. It also gave a TGI [6] of 381 µM, a TGI [8] of 229 µM and a TGI [9] of 196 µM. It also gave a TGI [10] of 619 µM and a TGI [5] of 1780 µM.
